Assay results reported in PubChem BioAssay AID1918933 (Molecular Pharmacology Branch, DTP, NCI, 2023).
Several values for one entry are separate records, joined by “and”; a condition that tells them apart may be missing. Equal entries are not always repeated.

Tested on: 186277-243-T-J2-PDC complex spheroid viability
Experiment: Anticancer human tumor 186277-243-T-J2-PDC patient-derived colon adenocarcinoma cell line growth inhibition
Conditions: for viability, T/C: stronger effect = lower value
Excerpt: Multicellular complex tumor spheroid response to LSD1 Inhibitor Iadademstat in combination with a variety of drugs and investigational agents in selected tumor cell lines
The current study was undertaken to assess response to LSD1 inhibitors in combination with standard-of-care drugs and investigational agents in solid tumor complex spheroid models as well as in the K-562 leukemia. Complex spheroids include a stromal component modeled by human endothelial cells (HUVEC) and fibroblasts modeled by human mesenchymal stem cells (MSCs). The concentration ranges selected for each drug and investigational agent were based upon clinically achievable concentrations if the clinical Cmax of the agent was known.
Compounds. The drugs and investigational agents used in this study are listed on Table 1. All of the agents used, including staurosporine (NSC755774) and gemcitabine (NSC613327), were obtained from the Developmental Therapeutics Program, NCI. FDA-approved anticancer drugs are available from the NCI at http://dtp.nci.nih.gov/branches/dscb/oncology_drugset_explanation.html. Drugs and investigational agents were >95% pure by proton nuclear magnetic resonance (NMR) and liquid chromatography/mass spectrometry (LC/MS). Stock solutions were prepared at 400x in DMSO, stored at -70 degrees C, and diluted in fresh medium prior to their use. The final concentration of DMSO in cell culture wells never exceeded 0.25% (v/v). The FDA-approved anticancer drug set is available from the Developmental Therapeutics Program at https://dtp.cancer.gov/organization/dscb/obtaining/available_plates.htm. All drugs and investigational agents were tested over a range starting from a high concentration at or near the clinical Cmax and decreasing in half-log increments. If the clinical Cmax for an agent had not been determined, the highest concentration tested was 10 microM.
Cell Lines. The patient-derived cancer cell (PDC) lines: 292921-168-R-J2-PDC, K24384-001-R-PDC, and 521955-158-R2-J5-PDC pancreatic carcinomas, 556581-035-R-J1 ovarian carcinoma, 324938-238-R-J1-PDC, 855422-203-R-J1-PDC and 883617-216-R-J1-PDC urothelial bladder carcinomas, 743489-274-T-PDC renal cell carcinoma, 138582-R-J1 Merkel cell tumor, K60290-347-R-J1 and K57222-313-R-J1-PDC glioblastomas, 653999-131-R-J2-PDC, LG0703-F948-PDC, and 349418-098-R-PDC non-small cell lung carcinomas, 885512-296-R-J2-PDC, 171881-019-R-J1-PDC breast carcinomas and 186277-243-T-J2-PDC and 233499-124-R-J2-PDC colon carcinomas were obtained from the NCI Patient-Derived Models Repository (PDMR, https://pdmr.cancer.gov). The established cell lines NCI/ADR-RES (RRID:CVCL_14520 and OVCAR-5 (RRID:CVCL_1628) ovarian carcinomas, 786-O (RRID:CVCL_1051) and A498 (RRID:CVCL_A498) renal cell carcinoma, NCI-H211 (ATCC, cat. CRL-5824; RRID:CVCL_1529), NCI-H196 (ATCC, cat. CRL-5823, RRID:CVCL_1509), SW 1271 (ATCC, cat. CRL-2177, RRID:CVCL_1716) and NCI-H1876 (ATCC, cat. CRL-5902, RRID:CVCL_1503) small cell lung carcinomas, MDA-MB-231 (RRID:CVCL_0062) and MDA-MB-468 (RRID:CVCL_0419)breast carcinomas (10-12). Pooled donor human umbilical vein endothelial cells (HUVEC, Lonza, cat. CC-2519) and human mesenchymal stem cells (hMSC, Lonza, cat. PT-2501) were purchased from Lonza (Walkersville, MD).
Cell Culture. All cells were maintained in an incubator at 37 degrees C and 5% CO2 with 95% humidity. The PDC lines were cultured according to standard operating procedures established by the NCI PDMR (https://pdmr.cancer.gov). Briefly all PDCs were thawed and cultured in Matrigel-coated flasks prepared with a working solution of 1X Ham's F-12 nutrient mix, without supplementation (Invitrogen, Waltham, MA, cat. 11765054), 100 U/mL penicillin-streptomycin (Invitrogen, cat. 15140122), and 2.5% Matrigel (Corning Inc., Corning, NY, cat. 354248) for the first three passages. […]
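Further: 7 day exposure to compounds.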
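Wherever viability, T/C is given: 100% = DMSO vehicle control viability.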

IC50 (curve of compound)	Structure (SMILES)	viability, T/C (compound 0.01 µM)	viability, T/C (compound 0.0316 µM)	viability, T/C (compound 0.1 µM)	viability, T/C (compound 0.00316 µM)	viability, T/C (compound 0.316 µM)	viability, T/C (compound 1 µM)	viability, T/C (compound 0.00949 µM)	viability, T/C (compound 0.03 µM)	viability, T/C (compound 0.0949 µM)	viability, T/C (compound 0.3 µM)	other results
2.74 nM and 0.548 nM	CC(C)CC(NC(=O)C(Cc1ccccc1)NC(=O)c1cnccn1)B(O)O (configuration not stated)	3.46% and 0.11%	2.69% and 0.11%	3.82% and 0.17%								viability, T/C (compound 0.000316 µM): 96.1% and 94%
15.3 nM and 10.2 nM	CC(C)CC(NC(=O)CNC(=O)c1cc(Cl)ccc1Cl)B1OC(=O)CC(CC(=O)O)(C(=O)O)O1 (configuration not stated)	70.7% and 51.2%	14.8% and 2.68%	6.24% and 0.35%	101% and 94.2%							viability, T/C (compound 0.000316 µM): 99.8% and 95.4%; viability, T/C (compound 0.001 µM): 99.4% and 103%
> 10000 nM	CC(C)c1c(-c2ccccc2)nc2c(C#N)c[nH]n2c1=O		94.8% and 108%	93.3% and 97.7%		101% and 99.1%	97.6% and 97.4%					viability, T/C (compound 3.16 µM): 96% and 82.9%; viability, T/C (compound 10 µM): 85.3% and 72.9%
3360 nM and 2210 nM	CC1(C)CCC(CN2CCN(c3ccc(C(=O)NS(=O)(=O)c4ccc(NCC5CCOCC5)c([N+](=O)[O-])c4)c(Oc4cnc5[nH]ccc5c4)c3)CC2)=C(c2ccc(Cl)cc2)C1		100% and 109%	108% and 90.4%		93% and 94.6%	95.7% and 97.7%					viability, T/C (compound 3.16 µM): 52.1% and 28.3%; viability, T/C (compound 10 µM): 8.65% and 0.19%
6.15 nM and < 3.16 nM	CC1COCCN1c1cc(-c2ccnn2C)c2ccnc(-c3ccn[nH]3)c2n1 (configuration not stated)	30.1% and 14%	11.1% and 8.92%	9.14% and 7.83%	77.4% and 18.2%	10.1% and 8.98%	11.4% and 7.8%					
278 nM and 952 nM	CC1COCCN1c1cc(C2(S(C)(=N)=O)CC2)nc(-c2ccnc3[nH]ccc23)n1 (configuration not stated)		103% and 87.2%	93.4% and 94.7%		44.4% and 91.3%	14.2% and 48%					viability, T/C (compound 3.16 µM): 8.73% and 10%; viability, T/C (compound 10 µM): 9.16% and 5.79%
> 3000 nM and 2200 nM	CCN(c1cc(-c2ccc(CN3CCOCC3)cc2)cc(C(=O)NCc2c(C)cc(C)[nH]c2=O)c1C)C1CCOCC1							106% and 93.9%	99.2% and 112%	108% and 96.8%	99.2% and 104%	viability, T/C (compound 0.949 µM): 99.2% and 108%; viability, T/C (compound 3 µM): 101% and 30.2%
75.9 nM and 61.3 nM	CC[C@@]1(O)C(=O)OCc2c1cc1n(c2=O)Cc2cc3c(CN(C)C)c(O)ccc3nc2-1	93.4% and 118%	74.8% and 75.9%	41.5% and 30.9%	95.7% and 113%							viability, T/C (compound 0.000316 µM): 113% and 102%; viability, T/C (compound 0.001 µM): 101% and 98%
< 0.949 nM	CCc1c2c(nc3ccc(O)cc13)-c1cc3c(c(=O)n1C2)COC(=O)[C@]3(O)CC							31.5% and 23.3%	22% and 4.12%	2.19% and 0.43%	0.75% and 0.28%	viability, T/C (compound 0.000949 µM): 48.5% and 39.8%; viability, T/C (compound 0.003 µM): 35.5% and 27%
1700 nM and 618 nM	COc1cc(C2c3cc4c(cc3C(OC3OC5COC(C)OC5C(O)C3O)C3COC(=O)C23)OCO4)cc(OC)c1O (configuration not stated)							101% and 112%	100% and 124%	92.8% and 98.9%	75.2% and 70.9%	viability, T/C (compound 0.949 µM): 61.2% and 39%; viability, T/C (compound 3 µM): 40.3% and 17.3%
	COc1cc(Nc2ncc3c(n2)-c2ccc(Cl)cc2C(c2c(F)cccc2OC)=NC3)ccc1C(=O)O	57.4% and 106%	30.4% and 99.2%	8.56% and 98.8%	101% and 116%							
2970 nM and 4370 nM	COc1ccc([C@@H](O)c2cc(-c3ncnc4cc(N5CCOCC5)ccc34)c(F)cc2Cl)nn1		103% and 101%	104% and 100%		87.8% and 101%	84.4% and 100%					viability, T/C (compound 3.16 µM): 46.7% and 64.8%; viability, T/C (compound 10 µM): 3.51% and 12.2%
> 100 nM	Cn1ncnc1C1c2n[nH]c(=O)c3cc(F)cc(c23)NC1c1ccc(F)cc1 (configuration not stated)	97.5% and 93.7%	94.1% and 101%	97.3% and 108%	97.8% and 95.2%							viability, T/C (compound 0.000316 µM): 101% and 106%; viability, T/C (compound 0.001 µM): 98.5% and 98%
	NC1CC1c1ccc(-c2cccc(O)c2)cc1 (configuration not stated)			101%		102% [middle of 25 runs]						viability, T/C (compound 3.16 µM): 107% [middle of 25 runs]; IC50 (compound alone, run of 02/01/2022): > 10000 nM
	NC1CCC(NC2CC2c2ccccc2)CC1 (configuration not stated)					104% and 114%						IC50 (compound alone, run of 01/18/2022): > 10000 nM
180 nM and 162 nM	NS(=O)(=O)OCC1CC(n2ccc3c(NC4CCc5ccccc54)ncnc32)CC1O (configuration not stated)							93.9% and 100%	94.9% and 85.9%	62.6% and 66.7%	37.2% and 33%	viability, T/C (compound 0.949 µM): 20.5% and 9.16%; viability, T/C (compound 3 µM): 7.98% and 4.41%
1310 nM and 628 nM	Nc1ccccc1NC(=O)c1ccc(CNC(=O)OCc2cccnc2)cc1							99.8% and 104%	99.2% and 98.5%	102% and 106%	88.2% and 103%	viability, T/C (compound 0.949 µM): 64.4% and 20.6%; viability, T/C (compound 3 µM): 14.5% and 1.27%
< 0.949 nM and 2.23 nM	Nc1ccn(C2OC(CO)C(O)C2(F)F)c(=O)n1 (configuration not stated)							16.5% and 13%	16.5% and 11.9%	17.1% and 12.7%	14.7% and 14%	viability, T/C (compound 0.000949 µM): 17.2% and 101%; viability, T/C (compound 0.003 µM): 16.7% and 32.3%
> 1000 nM	Nc1ncn(C2CC(O)C(CO)O2)c(=O)n1 (configuration not stated)	102% and 99.4%	97.3% and 94.3%	113% and 112%	93.4% and 108%	113% and 133%	104% and 141%					
69.6 nM and 104 nM	Nc1ncn(C2CC(O)C(CO)S2)c(=O)n1 (configuration not stated)							99.9% and 109%	83.4% and 99.1%	37.5% and 53.4%	11.7% and 12%	viability, T/C (compound 0.000949 µM): 109% and 96.1%; viability, T/C (compound 0.003 µM): 118% and 104%
223 nM and 234 nM	O=C(C=Cc1cccc(S(=O)(=O)Nc2ccccc2)c1)NO							102% and 94.1%	100% and 96.4%	84.3% and 80.5%	36.6% and 22.1%	viability, T/C (compound 0.949 µM): 15.3% and 3.68%
19.4 nM and 56.4 nM	O=C(C=Cn1cnc(-c2cc(C(F)(F)F)cc(C(F)(F)F)c2)n1)NNc1cnccn1	85.8% and 106%	23.5% and 84.3%	9.4% and 15.8%	98.1% and 93.5%	5.65% and 4.97%	0.55% and 2.09%					
> 10000 nM	O=C(c1cc(Cc2n[nH]c(=O)c3ccccc23)ccc1F)N1CCN(C(=O)C2CC2)CC1		100% and 90.9%	102% and 106%		105% and 103%	93.5% and 95.7%					viability, T/C (compound 3.16 µM): 69.7% and 113%; viability, T/C (compound 10 µM): 54.8% and 86.6%
